Earlier results in patent publication US20250288650A1, “Therapeutic Regimens and Methods for Reducing Body Weight and/or Serum Lipids using a GLP-1R and GCGR Agonist” (Spitfire Pharma LLC, priority 2024, published 2025).

Legend:
[1] = 6 weeks
[2] = over 26 weeks of administration

CCCCCCCCCCCCCCCC(=O)N[C@@H](CCC(=O)NCCCC[C@H](NC(=O)[C@H](CC(=O)O)NC(=O)[C@H](CO)NC(=O)[C@@H](NC(=O)[C@H](Cc1ccccc1)NC(=O)[C@@H](NC(=O)CNC(=O)[C@H](CCC(N)=O)NC(=O)[C@H](CO)NC(=O)[C@@H](N)Cc1c[nH]cn1)[C@@H](C)O)[C@@H](C)O)C(=O)N[C@@H](CO)C(=O)N[C@@H](CCC(=O)O)C(=O)N[C@@H](Cc1ccc(O)cc1)C(=O)N[C@@H](CC(C)C)C(=O)N[C@@H](CC(=O)O)C(=O)N[C@@H](CO)C(=O)N[C@@H](CCC(=O)O)C(=O)N[C@@H](CCCNC(=N)N)C(=O)N[C@@H](C)C(=O)N[C@@H](CCCNC(=N)N)C(=O)N[C@@H](CC(=O)O)C(=O)N[C@@H](Cc1ccccc1)C(=O)N[C@H](C(=O)N[C@@H](C)C(=O)N[C@@H](Cc1c[nH]c2ccccc12)C(=O)N[C@@H](CC(C)C)C(=O)N[C@@H](CCC(=O)O)C(=O)N[C@@H](C)C(=O)NCC(=O)NCC(=O)O)C(C)C)C(=O)O [cotadutide]
reduction in liver fat content [1]: 39% | degree of weight loss [2]: 5.4%
